Experimental data: paper PMC10385579, “Design, Synthesis, and Biological Evaluation of Indole-2-carboxamides as Potential Multi-Target Antiproliferative Agents” (Pharmaceuticals, 2023)

Legend:
Format in all cases: cell-based, human
caspase-8 = assay: Caspase-8 level assay in A-549 cells
Procedure: See Supplementary Materials.
4.2.6. Caspase-8 activation assay […]
caspase8, and lysed with Cell Extraction Buffer. This lysate was diluted in Standard Diluent Buffer over the range of the assay and measured for human active caspase-8 content. (Cells are Plated in a density of 1.2 – 1.8 × 10,000 cells/well in a vo lume of 100µl complete growth medium + 100 ul of the tested compound per well in a 96-well plate for 24 hours before the enzyme assay for Tubulin.). The absorbance of each microwell was read on a spectro-photometer at 450 nm. A standard curve is prepared from 7human Caspase-8 standard dilutions and human Caspase-8 concentration determined. […]

Bcl-2 = Bcl-2 level assay in A-549 cells
Procedure: Compounds Va and Vg were explored further for their impact on caspase-8, Bax, and Bacl-2 levels against a human epithelial cancer cell line (A-549) using doxorubicin as a reference. See Supplementary Materials. […]
4.2.8. Bcl-2inhibition assay
Mix all reagents thoroughly without foaming before use. Wash the microwells twice with approximately 300 μL Wash Buffer per well with thorough aspiration of microwell contents between washes. Take caution not to scratch the surface of the microwells. After the last wash, empty the wells and tap microwell strips on absorbent pad or paper towel to remove excess Wash Buffer. Use the microwell strips immediately after washing or place upside down on a wet absorbent paper for not longer than 15 minutes. […] Add 100 μL of Sample […]
Diluent in duplicate to all standard wells and to the blank wells. Prepare standard (1:2 dilution) in duplicate ranging from 32 ng/mL to 0.5 ng/mL. Add 100 μL of Sample Diluent, in duplicate, to the blank wells. Add 80 μL of Sample Diluent, in duplicate, to the sample wells. Add 20 μL of each Sample, in duplicate, to the designated wells. Add 50 μL of diluted biotin-conjugate to all wells, including the blank wells. Cover with a plate cover and incubate at room temperature, on a microplate shaker at 100 rpm if available, for 2 hours. Remove plate cover and empty the wells.
Wash microwell strips 3 times as described in step 2. Add 100 μL of diluted Streptavidin-HRP to all wells, including the blank wells. Cover with a plate cover and incubate at room temperature, on a microplate shaker at 100 rpm if available, for 1 hour. Remove plate cover and empty the wells.
Wash microwell strips 3 times as described in step 2. Proceed to the next step. Pipette 100 μl of mixed TMB Substrate Solution to all wells, including the blanks. Incubate the microwell strips at room temperature (18° to 25°C) for about 15 minutes, if available on a rotator set at 100 rpm.
Avoid direct exposure to intense light. The point, at which the substrate reaction is stopped, is often determined by the ELISA reader. Many ELISA readers record absorbance only up to 2.0
O.D. Therefore, the color development within individual microwells must be watched by the person running the assay and the substrate reaction stopped before positive wells are no longer properly detectable. Stop the enzyme reaction by quickly pipetting 100 μL of Stop Solution into each well, including the blank wells. It is important that the Stop Solution is spread quickly and uniformly throughout the microwells to completely inactivate the enzyme. Results must be read immediately after the Stop Solution is added or within one hour if the microwell strips are stored at 2 - 8°C in the dark. Read absorbance of each microwell on a spectrophotometer using 450 nm as the primary wavelength.

Bax = Bax level assay in A-549 cells
Procedure: caspase8, and lysed with Cell Extraction Buffer. This lysate was diluted in Standard Diluent Buffer over the range of the assay and measured for human active caspase-8 content. […]
4.2.7. Bax activation assay
Bring all reagents, except the human Bax-α Standard, to room temperature for at least 30 minutes prior to opening. The human Bax-α Standard solution should not be left at room temperature for more than 10 minutes. All standards, controls and samples should be run in duplicate. Refer to the Assay Layout Sheet to determine the number of wells to be used and put any remaining wells with the desiccant back into the pouch and seal the ziploc. Store unused wells at 4 °C. Pipet 100 μL of Assay Buffer into the S0 (0 pg/mL standard) wells. Pipet 100 μL of Standards #1 through #6 into the appropriate wells. Pipet 100 μL of the Samples into the appropriate wells. Tap the plate gently to mix the contents. Seal the plate and incubate at room temperature on a plate shaker for 1 hour at ~500 rpm. Empty the contents of the wells and wash by adding 400 μL of wash solution to every well. Repeat the wash 4 more times for a total of 5 washes. After the final wash, empty or aspirate the wells and firmly tap the plate on a lint free paper towel to remove any remaining wash buffer.
Pipet 100 μL of yellow Antibody into each well, except the Blank. Seal the plate and incubate at room temperature on a plate shaker for 1 hour at ~500 rpm. Empty the contents of the wells and wash by adding 400 μL of wash solution to every well. Repeat the wash 4 more times for a total of 5 washes. After the final wash, empty or aspirate the wells and firmly tap the plate on a lint free paper towel to remove any remaining wash buffer. Add 100 μL of blue Conjugate to each well, except the Blank. Seal the plate and incubate at room temperature on a plate shaker for 30 minutes […]
Pipet 100 μL of Substrate Solution into each well. Incubate for 30 minutes at room temperature on a plate shaker at ~500 rpm. Pipet 100 μL Stop Sol ution to each well. Blank the plate reader against the Blank wells, read the optical density at 450 nm. Calculate the average net Optical Density (OD) bound for each standard and sample by subtracting the average Blank OD from the average OD for each standard and sample. Using linear graph paper, plot the Average Net OD for each standard versus Bax concentration in each standard. Approximate a straight line through the points.
The concentration of Bax in the unknowns can be determined by interpolation. […]

caspase-3 = assay: Caspase 3 assay in A-549 cells; conditions: for Caspase-3 Conc: untreated control 66 pg/mL
Procedure: Caspases play a crucial function in the induction and completion of apoptosis. Caspase-3 is an essential caspase that cleaves different proteins in cells, resulting in apoptosis. […]
4.2.5. Caspase-3 activation assay
Allow all reagents to reach room temperature before use. Gently mix all liquid reagents prior to use. Determine the number of 8-well strips needed for the assay. Insert these in the frame(s) for current use. Add 100 μl of the Standard Diluent Buffer to the zero standard wells. Well(s) reserved for chromogen blank should be left empty. Add 100 μl of standards and controls or diluted samples to the appropriate microtiter wells. The sample dilution chosen should be optimized for each experimental system. Tap gently on side of plate to mix. Cover wells with plate cover and incubate for 2 hours at room temperature. Thoroughly aspirate or decant solution from wells and discard the liquid, Wash wells 4 times. Pipette 100 μl of Caspase-3 (Active) Detection Antibody solution into each well except the chromogen blank(s). Tap gently on the side of the plate to mix. Cover plate with plate cover and incubate for 1 hour at room temperature. Thoroughly aspirate or decant solution from wells and discard the liquid, Wash wells 4 times. Add 100 μl Anti-Rabbit IgG HRP Working Solution to each well except the chromogen blank(s). Prepare the working dilution as described in Preparing IgG HRP. Cover wells with the plate cover and incubate for 30 minutes at room temperature. Thoroughly aspirate or decant solution from wells and discard the liquid. Wash wells 4 times. Add 100 μl of Stabilized Chromoge n to each well. The liquid in the wells will begin to turn blue. Incubate for 30 minutes at room temperature and in the dark. The incubation time for chromogen substrate is often determined by the microtiter plate reader used. Many plate readers have the capacity to record a maximum optical density (O.D.) of 2.0. The O.D. values should be monitored, and the substrate reaction stopped before the O.D. of the positive wells exceeds the limits of the instrument. The O.D. values at 450 nm can only be read after the Stop Solution has been added to each well. If using a reader that records only to 2.0 O.D., stopping the assay after […]
Add 100 μl of Stop Solution to each well. Tap side of plate gently to mix. The solution in the wells should change from blue to yellow. Read the absorbance of each well at 450 nm having blanked the plate reader against a chromogen blank composed of 100 μl each of Stabilized Chromogen and Stop Solution. Read the plate within 2 hours after adding the Stop Solution. Use a curve fitting software to generate the standard curve. A four-parameter algorithm provides the best standard curve fit. Read the concentrations for unknown samples and controls from the standard curve. Multiply value(s) obtained for sample(s) by the appropriate dilution factor to correct for the dilution in step 3. Samples producing signals greater than that of the highest standard should be diluted in Standard Diluent Buffer and reanalyzed.

## COc1cccc2c1C(=O)c1c(O)c3c(c(O)c1C2=O)C[C@@](O)(C(=O)CO)C[C@@H]3O[C@H]1C[C@H](N)[C@H](O)[C@H](C)O1 [Doxorubicin, reference compound]
caspase-8; control 0.10
  Caspase-8 Conc: 1.80 ng/mL
caspase-8; vs control
  Caspase-8 Fold Change: 18
Bcl-2; control 5
  Bcl-2 Conc: 0.90 ng/mL
Bcl-2; vs control
  Bcl-2 Fold Reduction: 6
Bax; control 9
  Bax Conc: 280 pg/mL
Bax; vs control
  Bax Fold Change: 31
caspase-3
  Caspase-3 Conc: 505 ± 4 pg/mL
caspase-3; listed as doxorubicin
  Caspase-3 Conc: 505 ± 4.0 pg/mL
caspase-3; vs untreated control
  Caspase-3 Fold Change: 7.5
